Calls of active or inactive are those of the source. The calls are words filed in the database; no cut-off is given here.
How the values were obtained:
[1] = test system: MDA-MB-231; assay: Antiproliferative activity against human MDA-MB-231 cells assessed as reduction in cell viability after 48 hrs by MTT assay; type: functional, cell-based; conditions: MDA-MB-231, 48 h
[2] = test system: MDA-MB-231; assay: Inhibition of colony formation in human MDA-MB-231 cells at 2.5 to 5 uM incubated for 7 days by crystal violet staining based assay; type: functional, cell-based; conditions: dose 2.5-5 µM, time 7.0 day
[3] = test system: MDA-MB-231; assay: Inhibition of cell migration in human MDA-MB-231 cells at 2.5 to 5 uM incubated for 36 hrs by wound healing assay; type: functional, cell-based; conditions: dose 2.5-5 µM
[4] = test system: 4T1; assay: Antiproliferative activity against mouse 4T1 cells assessed as reduction in cell viability after 48 hrs by MTT assay; type: functional, cell-based; conditions: 4T1, 48 h
[5] = target: T1, Annexin A2/S100-A10 (Homo sapiens) (UniProt P07355+P60903); assay: Inhibition of human ANXA2/S100A10 interaction in MDA-MB-231 cells pretreated with compound for 48 hrs by immunoprecipitation based Western blot analysis; type: cell-based
[6] = test system: 4T1; assay: Inhibition of cell migration in mouse 4T1 cells at 5 to 10 uM incubated for 24 hrs by wound healing assay; type: functional, cell-based; conditions: dose 5-10 µM
[7] = test system: MDA-MB-231; assay: Inhibition of cell stemness in human MDA-MB-231 cells assessed as reduction in size of tumor spheres incubated in tumorsphere medium for 4 days followed by compound incubation for 96 hrs by microscopic analysis; type: functional, cell-based
[8] = test system: 4T1; assay: Inhibition of colony formation in mouse 4T1 cells at 2.5 to 5 uM incubated for 7 days by crystal violet staining based assay; type: functional, cell-based; conditions: dose 2.5-5 µM, time 7.0 day
[9] = test system: MDA-MB-231; assay: Antitumor activity against human MDA-MB-231 cells assessed as reduction in cell invasion at 2.5 to 5 uM measured after 24 hrs by crystal violet staining based transwell assay; type: functional; conditions: dose 2.5-5 µM
[10] = test system: MDA-MB-231; assay: Antimetastatic activity against human MDA-MB-231 cells assessed as accumulation of E-cadherin in cell cytoplasm at 5 to 10 uM measured after 48 hrs by Western blot analysis; type: functional, cell-based; conditions: dose 5-10 µM
[11] = test system: 4T1; assay: Antitumor activity against mouse 4T1 cells assessed as reduction in cell invasion at 2.5 to 5 uM measured after 24 hrs by crystal violet staining based transwell assay; type: functional; conditions: dose 2.5-5 µM
[12] = test system: MDA-MB-231; assay: Antimetastatic activity against human MDA-MB-231 cells assessed as decrease in E-cadherin expression in cell membrane at 5 to 10 uM measured after 48 hrs by Western blot analysis; type: functional, cell-based; conditions: dose 5-10 µM
[13] = test system: MDA-MB-231; assay: Inhibition of cell stemness in human MDA-MB-231 cells assessed as reduction in tumor spheres count at 10 to 20 uM incubated in tumorsphere medium for 4 days followed by compound incubation for 96 hrs by microscopic analysis; type: functional, cell-based; conditions: dose 10-20 µM
[14] = test system: 4T1; assay: Inhibition of cell stemness in mouse 4T1 cells assessed as reduction in size of tumor spheres incubated in tumorsphere medium for 4 days followed by compound incubation for 96 hrs by microscopic analysis; type: functional, cell-based
[15] = test system: 4T1; assay: Inhibition of cell stemness in mouse 4T1 cells assessed as reduction in tumor spheres count at 10 to 20 uM incubated in tumorsphere medium for 4 days followed by compound incubation for 96 hrs by microscopic analysis; type: functional, cell-based; conditions: dose 10-20 µM
[16] = target: T1, Annexin A2/S100-A10 (Homo sapiens); assay: Inhibition of human ANXA2/S100A10 interaction in MDA-MB-231 cells at 5 to 10 uM measured after 48 hrs by immunocytochemistry assay; type: cell-based; conditions: dose 5-10 µM
[17] = test system: 4T1; assay: Antitumor activity against mouse 4T1 cells expressing luciferase gene implanted in BALB/c lung metastatic mouse model assessed as reduction in fluorescence at 10 mg/kg, ip administered twice a week for 20 days by luciferase reporter gene based bioluminescence assay; type: functional, organism-based; conditions: time 20.0 day
[18] = Toxicity in BALB/c mouse xenografted with mouse 4T1 assessed as effect on body weight at 100 mg/kg, po administered once a day for 36 days; type: organism-based; conditions: in vivo, 864 h, time 36 day
[19] = test system: 4T1; assay: Antimetastatic activity against mouse 4T1 cells expressing luciferase gene implanted in BALB/c lung metastatic mouse model assessed as down regulation of E-cadherin expression in liver tissue at 100 mg/kg, po administered once a day for 20 days; type: functional, organism-based; conditions: time 20.0 day
[20] = test system: 4T1; assay: Antitumor activity against mouse 4T1 cells expressing luciferase gene implanted in BALB/c lung metastatic mouse model assessed as decrease in lung metastasis at 100 mg/kg, po administered once a day for 20 days by H&E staining based assay; type: functional, organism-based; conditions: time 20.0 day
[21] = test system: 4T1; assay: Antimetastatic activity against mouse 4T1 cells expressing luciferase gene implanted in BALB/c lung metastatic mouse model assessed as down regulation of ANXA2 expression in liver tissue at 100 mg/kg, po administered once a day for 20 days; type: functional, organism-based; conditions: time 20.0 day
[22] = test system: 4T1; assay: Antitumor activity against mouse 4T1 cells xenografted in BALB/c mouse assessed as decrease in lung metastasis at 100 mg/kg, po administered once a day for 36 days by H&E staining based assay; type: functional, organism-based; conditions: time 36.0 day
[23] = test system: 4T1; assay: Antitumor activity against mouse 4T1 cells expressing luciferase gene implanted in BALB/c lung metastatic mouse model assessed as reduction in fluorescence at 100 mg/kg, po administered once a day for 20 days by luciferase reporter gene based bioluminescence assay; type: functional, organism-based; conditions: time 20.0 day
[24] = test system: 4T1; assay: Antitumor activity against mouse 4T1 cells expressing luciferase gene implanted in BALB/c lung metastatic mouse model assessed as decrease in lung metastatic burden at 100 mg/kg, po administered once a day for 20 days by H&E staining based assay; type: functional, organism-based; conditions: time 20.0 day
[25] = test system: 4T1; assay: Antitumor activity against mouse 4T1 cells xenografted in BALB/c mouse assessed as decrease in liver metastasis at 100 mg/kg, po administered once a day for 36 days by H&E staining based assay; type: functional, organism-based; conditions: time 36.0 day
[26] = test system: 4T1; assay: Antitumor activity against mouse 4T1 cells xenografted in BALB/c mouse assessed as tumor growth inhibition at 100 mg/kg, po administered once a day for 36 days; type: functional; conditions: 4T1, po, 864 h, time 36 day, read-out: TGI

T1 sequence (P07355 2-339 limits assumed): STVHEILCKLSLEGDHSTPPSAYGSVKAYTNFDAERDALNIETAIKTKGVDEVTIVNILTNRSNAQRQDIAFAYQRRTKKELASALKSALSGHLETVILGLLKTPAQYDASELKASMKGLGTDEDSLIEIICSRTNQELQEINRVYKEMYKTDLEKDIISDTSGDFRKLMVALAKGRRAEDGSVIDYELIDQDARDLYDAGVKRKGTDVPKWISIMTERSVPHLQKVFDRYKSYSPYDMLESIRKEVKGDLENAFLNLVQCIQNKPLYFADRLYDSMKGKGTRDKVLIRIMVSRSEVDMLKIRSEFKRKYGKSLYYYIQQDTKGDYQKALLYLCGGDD
T1 sequence (P60903 whole entry partner): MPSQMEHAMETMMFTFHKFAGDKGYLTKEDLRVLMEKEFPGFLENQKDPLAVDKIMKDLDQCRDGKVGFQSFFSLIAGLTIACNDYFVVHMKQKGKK

With `C=C1C(=O)O[C@@H]2C[C@@]3(C)CCC[C@H](C)[C@@]34O[C@H]4[C@H]12` the IC50 [1] was 16 µM, the inhibition [2] was “Active” and the inhibition [3] was “Active”. The IC50 [4] was 18.4 µM, the inhibition [5] was “Active” and the inhibition [6] was “Active”. The inhibition [7] was “Dose-Dependent Effect”, the inhibition [8] was “Active” and the Activity [9] was “Active”. The Activity [10] was “Active”, the Activity [11] was “Active” and the Activity [12] was “Active”. The inhibition [13] was “Active”, the inhibition [14] was “Dose-Dependent Effect” and the inhibition [15] was “Active”. For the same compound, the inhibition [16] was “Active”.

With `CC(=O)O[C@H]1C(=O)[C@@]2(C)[C@H]([C@H](OC(=O)c3ccccc3)[C@]3(O)C[C@H](OC(=O)[C@H](O)[C@@H](NC(=O)c4ccccc4)c4ccccc4)C(C)=C1C3(C)C)[C@]1(OC(C)=O)CO[C@@H]1C[C@@H]2O` the Activity [17] was “inactive”.

For `C[C@H]1CCC[C@]2(C)C[C@H]3OC(=O)[C@@H](CN(C)C)[C@H]3[C@@H]3O[C@@]132.O=C(O)/C=C/C(=O)O`, the Activity [18] was “Non-Toxic”, the Activity [19] was “Active” and the Activity [20] was “Active”. The Activity [21] was “Active”, the Activity [22] was “Active” and the Activity [23] was “Active”. For the same compound, the Activity [24] was “Active”, the Activity [25] was “Active” and the inhibition in vivo at 100 mg/kg [26] was 30%.
